Some test systems named below: 786-0 renal; CAKI-1 renal; KM12 colon; NCI-H226 lung; NCI-H460 lung; NCI-H522 lung; OVCAR-3 ovarian; SNB-75 CNS; T-47D breast; UO-31 renal.
Holding throughout (assay): growth of human tumour cells (NCI), 48 h

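Interpolation was linear, between the two tested concentrations surrounding the appropriate level; five concentrations were tested over 48 hours in 96-well plates. GI50 marks 50% less growth. Definition used: TGI = concentration required for complete inhibition of growth.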 Bounds are passed on as bounds.

As to `C(=N\Nc1ccc2ccccc2n1)/c1ccccn1`, the GI50 in the test on 786-0 renal is 0.317 µM; with CAKI-1 renal, 0.257 µM; with KM12 colon, 0.458 µM; in the test with NCI-H226 lung, 0.508 µM; with NCI-H460 lung, 0.366 µM; with NCI-H522 lung it was 0.319 µM. Moreover, the GI50 in the test on OVCAR-3 ovarian was 0.351 µM; in the test on SNB-75 CNS, 1.1 µM; in the test with T-47D breast, 0.574 µM; in the test on UO-31 renal, 0.304 µM. Besides, the TGI in the test on CAKI-1 renal was 0.763 µM; in the test with KM12 colon it was 16.2 µM; in the test on NCI-H226 lung, 19 µM; with NCI-H522 lung it was 11.8 µM; with SNB-75 CNS it was 51.2 µM; in the test on T-47D breast, 38.5 µM. In the test with UO-31 renal, this molecule returned a TGI of 2.66 µM.

For `CC(=O)c1c(C)c2cnc(Nc3ccc(N4CCNCC4)cn3)nc2n(C2CCCC2)c1=O`, the GI50 is 5.04 µM with 786-0 renal; 1.61 µM with CAKI-1 renal; 0.623 µM with KM12 colon; 6.07 µM with NCI-H226 lung; 1.79 µM with NCI-H460 lung; 13 µM in the test with NCI-H522 lung. In addition, the GI50 is 15.9 µM in the test on OVCAR-3 ovarian, 10.7 µM in the test on SNB-75 CNS, 14.5 µM in the test on T-47D breast and 2.6 µM in the test on UO-31 renal. In addition, the TGI was found to be 20.7 µM with 786-0 renal; 17.2 µM with CAKI-1 renal; 13.9 µM in the test with KM12 colon; 22.4 µM in the test with NCI-H226 lung; 18.4 µM with NCI-H460 lung; 27.4 µM in the test with NCI-H522 lung. The TGI worked out at 30.4 µM in the test with OVCAR-3 ovarian, 23.4 µM with SNB-75 CNS, 32.6 µM in the test on T-47D breast and 20.1 µM with UO-31 renal.

With `COc1ccc2c(c1)/C(=N/OC(C)=O)c1c-2c(OC)nc2ccccc12`, the GI50 with 786-0 renal, in the test on CAKI-1 renal, in the test on KM12 colon, in the test on NCI-H226 lung, in the test on NCI-H460 lung and in the test on NCI-H522 lung was greater than 100 µM in each case. Also, the GI50 is greater than 100 µM with OVCAR-3 ovarian, 18 µM with SNB-75 CNS, 27.7 µM in the test on T-47D breast and greater than 100 µM with UO-31 renal. The TGI in the test with 786-0 renal, in the test on CAKI-1 renal, in the test with KM12 colon, with NCI-H226 lung, in the test with NCI-H460 lung and with NCI-H522 lung was greater than 100 µM each time. Also, the TGI in the test on OVCAR-3 ovarian, in the test on SNB-75 CNS, in the test on T-47D breast and in the test on UO-31 renal was greater than 100 µM each time.

Turning to `COc1ccc(C(O)c2ccccn2)cc1` (stereo unspecified), the TGI with 786-0 renal, in the test with CAKI-1 renal, in the test with KM12 colon, with NCI-H226 lung, with NCI-H460 lung and in the test with NCI-H522 lung was greater than 100 µM in each case. Further, the TGI in the test with OVCAR-3 ovarian, in the test with SNB-75 CNS and in the test with T-47D breast was greater than 100 µM in each case.

`COc1cnccc1Nc1nc(-c2nn(Cc3c(F)cc(OCCO)cc3F)c3ccccc23)ncc1OC`: the GI50 in the test on 786-0 renal is 1.76 µM; with CAKI-1 renal it was 11.9 µM; in the test on KM12 colon, 3.88 µM; in the test on NCI-H226 lung, 12.4 µM; in the test with NCI-H460 lung, 2.06 µM; with NCI-H522 lung it was 1.82 µM. Also, the GI50 is 3.05 µM in the test on OVCAR-3 ovarian, 3.76 µM in the test on SNB-75 CNS, 16.5 µM in the test with T-47D breast and 1.97 µM in the test on UO-31 renal. The TGI in the test on 786-0 renal came to 5.44 µM; in the test with CAKI-1 renal, 29.5 µM; with KM12 colon, 63.6 µM; in the test with NCI-H226 lung it was 31.9 µM; in the test with NCI-H460 lung it was 10.6 µM; with NCI-H522 lung it was 8.55 µM. The TGI in the test with OVCAR-3 ovarian is 8.51 µM; in the test on SNB-75 CNS it was 18.4 µM; in the test with T-47D breast, 72.7 µM; with UO-31 renal, 8.43 µM.

As for `FC(F)(F)c1cccc(-c2[nH]ncc2-c2nnnn2-c2ccccc2)c1`, the GI50 is 5.78 µM in the test on 786-0 renal; 5.36 µM in the test with CAKI-1 renal; 4.08 µM in the test on KM12 colon; 13.2 µM in the test on NCI-H226 lung; 3.32 µM in the test with NCI-H460 lung; 4.58 µM in the test with NCI-H522 lung. In addition, the GI50 was 2.97 µM in the test on OVCAR-3 ovarian, 4.81 µM in the test with SNB-75 CNS, 4.23 µM with T-47D breast and 10.7 µM with UO-31 renal. Also, the TGI in the test with 786-0 renal came to 22 µM; in the test with CAKI-1 renal it was 27.7 µM; with KM12 colon, 22.2 µM; in the test with NCI-H226 lung, 31.1 µM; with NCI-H460 lung it was 12.8 µM; in the test with NCI-H522 lung it was 19 µM. Also, the TGI was found to be 10.9 µM in the test on OVCAR-3 ovarian, 20.1 µM in the test with SNB-75 CNS, 24.7 µM in the test on T-47D breast and 23.6 µM in the test on UO-31 renal.

Consider `Oc1[nH]c2ccccc2c1C=Nc1ccc(-n2cncn2)cc1`, for which the GI50 with 786-0 renal was greater than 25 µM; in the test on CAKI-1 renal, greater than 22.7 µM; in the test with KM12 colon it was 0.991 µM; with NCI-H226 lung, 8.34 µM; with NCI-H460 lung, greater than 23 µM; in the test on NCI-H522 lung, 10.7 µM. Further, the GI50 with OVCAR-3 ovarian is greater than 20.9 µM; in the test on SNB-75 CNS, greater than 25 µM; in the test with T-47D breast it was 8.79 µM; with UO-31 renal it was greater than 17.7 µM. For the same molecule, the TGI with 786-0 renal was greater than 25 µM; in the test on CAKI-1 renal, greater than 25 µM; in the test on KM12 colon it was greater than 25 µM; in the test with NCI-H226 lung it was greater than 22.1 µM; in the test with NCI-H460 lung, greater than 25 µM; in the test with NCI-H522 lung it was greater than 25 µM. For the same molecule, the TGI is greater than 25 µM in the test on OVCAR-3 ovarian, greater than 25 µM with SNB-75 CNS, greater than 21.9 µM in the test on T-47D breast and greater than 25 µM in the test with UO-31 renal.

Take `CCC(c1ccccc1)c1cc(C(C)(C)C)cc(C(C)(C)C)c1O` (stereo unspecified): the TGI is 29 µM with 786-0 renal; 29.8 µM in the test with CAKI-1 renal; 32.3 µM in the test with KM12 colon; 35.1 µM with NCI-H226 lung; 31.3 µM in the test with NCI-H460 lung; 27.2 µM in the test with NCI-H522 lung. The TGI in the test on OVCAR-3 ovarian turned out to be 27.2 µM; in the test on SNB-75 CNS, 27.2 µM; in the test with T-47D breast, 29.6 µM; in the test on UO-31 renal, 32.3 µM.

These data come from PubChem BioAssay (NCI).
